Laboratory results published in US9783552B2, “Soluble guanylate cyclase activators” (MERCK SHARP & DOHME CORP., priority 2013, dated 2017).
pEC50: −log10 of the molar value.

Target: T1, sGC α1/β1 heterodimer (Homo sapiens, UniProt Q02108+Q02153)
T1 construct: expressed in transfected cells
T1 sequence (Q02108 1-690): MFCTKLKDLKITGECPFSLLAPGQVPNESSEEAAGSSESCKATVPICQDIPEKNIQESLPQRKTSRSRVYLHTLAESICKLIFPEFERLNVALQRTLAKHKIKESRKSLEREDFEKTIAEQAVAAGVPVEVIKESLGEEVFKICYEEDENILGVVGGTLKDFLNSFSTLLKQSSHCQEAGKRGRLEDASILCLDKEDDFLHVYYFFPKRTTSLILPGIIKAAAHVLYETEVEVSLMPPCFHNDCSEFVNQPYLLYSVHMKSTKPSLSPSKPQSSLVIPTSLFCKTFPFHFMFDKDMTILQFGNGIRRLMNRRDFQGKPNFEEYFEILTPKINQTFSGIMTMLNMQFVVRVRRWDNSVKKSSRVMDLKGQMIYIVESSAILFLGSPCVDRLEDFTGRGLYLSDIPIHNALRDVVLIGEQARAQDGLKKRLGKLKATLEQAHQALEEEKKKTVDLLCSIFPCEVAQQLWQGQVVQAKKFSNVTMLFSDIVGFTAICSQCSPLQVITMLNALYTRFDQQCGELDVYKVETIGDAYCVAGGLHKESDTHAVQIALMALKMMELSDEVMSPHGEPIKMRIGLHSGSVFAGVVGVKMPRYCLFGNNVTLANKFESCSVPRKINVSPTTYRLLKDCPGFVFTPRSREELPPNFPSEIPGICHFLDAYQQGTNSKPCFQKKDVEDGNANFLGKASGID
T1 sequence (Q02153 1-619): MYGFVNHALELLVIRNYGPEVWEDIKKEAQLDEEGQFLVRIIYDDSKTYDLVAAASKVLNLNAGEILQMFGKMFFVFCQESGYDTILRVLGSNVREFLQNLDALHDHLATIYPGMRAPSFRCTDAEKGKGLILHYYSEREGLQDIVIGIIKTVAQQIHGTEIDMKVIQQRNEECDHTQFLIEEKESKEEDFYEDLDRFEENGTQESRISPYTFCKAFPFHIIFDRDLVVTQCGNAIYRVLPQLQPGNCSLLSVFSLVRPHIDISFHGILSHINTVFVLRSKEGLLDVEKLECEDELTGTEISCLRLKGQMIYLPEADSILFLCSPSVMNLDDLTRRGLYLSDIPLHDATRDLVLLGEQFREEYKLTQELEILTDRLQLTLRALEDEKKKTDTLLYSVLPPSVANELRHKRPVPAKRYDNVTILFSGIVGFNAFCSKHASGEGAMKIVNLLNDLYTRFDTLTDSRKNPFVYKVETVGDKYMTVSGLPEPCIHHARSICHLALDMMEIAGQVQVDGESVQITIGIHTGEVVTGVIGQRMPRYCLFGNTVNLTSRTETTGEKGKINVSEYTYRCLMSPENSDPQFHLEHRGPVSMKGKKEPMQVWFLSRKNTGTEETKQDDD
Assay: Cell-Based sGC Functional Assay (CASA Assay)
Conditions: CHO-K1/sGC cells; for pEC50: intracellular cGMP by HTRF, 1 hr at 37° C., IP from 4P fit, presence or absence of 1 μM DETA-NO not given; for Emax: cGMP as percentage of maximum cGMP production of Compound A (=100% activation), read-out: % ACT (percent activation)
Text: Biological Assays: Cell-Based sGC Functional Assay (CASA Assay)
sGC is a heme-containing enzyme that converts GTP to secondary messenger cGMP. Increases in cGMP levels affect several physiological processes including vasorelaxation through multiple downstream pathways. […] Heme-dependent activators (HDAs) preferentially activate sGC containing a ferrous heme group. To determine the effect of sGC activators on enzyme activity, the CASA assay was developed to monitor the generation of cGMP in a cell line that stably expresses the heterodimeric sGC protein.
A CHO-K1 cell line stably expressing the sGC α1/β1 heterodimer was generated using a standard transfection protocol. CHO-K1 cells were transfected with plasmids pIREShyghsGCα1 and pIRESneo-hsGCβ1 simultaneously using FUGENE reagent. Clones that stably express both subunits were selected with hygromycin and neomycin for ˜2 weeks. Clone #7 was chosen for the assay and was designated CHO-K1/sGC. CHO-K1/sGC cells were maintained in F-K12 medium containing 10% heat-inactivated Fetal Bovine Serum (FBS), 100 μg/mL penicillin/streptomycin, 0.5 mg/mL hygromycin and 0.25 mg/mL G418. The cells were then cryopreserved in LN2. On the day of the assay, cells were thawed and resuspended in EBSS Assay Buffer (EAB, Sigma, E3024) supplemented with 5 mM MgCl2, 10 mM HEPES (4-(2-hydroxyethyl)piperazine-1-ethanesulfonic acid) and 0.05% BSA (bovine serum albumin) and cell density was then adjusted to 4×10^5/mL with EAB. IBMX (3-isobutyl-1-methylxanthin, 0.5 mM) was added to inhibit degradation of cGMP. Compounds were diluted from DMSO stock solutions and added to the assay at a final DMSO concentration of 2.5%. Cells were incubated with compounds in the presence and absence of 1 μM of Diethylenetriamine/nitric oxide adduct (DETA-NO; Sigma, 17018) for 1 hr at 37° C. At the end of the incubation period, the reaction was terminated and the cells were lysed with the detection reagents from Cisbio Kits. The level of intracellular cGMP was determined using an HTRF-based assay kit (CisBio, 62GM2PEC), which detects the displacement of a fluorescence labeled cGMP from its specific antibody. The cGMP produced by test compounds was directly compared to the maximum cGMP production (this value was set to equal 100% activation) of the published sGC-HDA Compound A:
[drawing 123] (Example 1 in WO 2010/065275, published Jun. 10, 2010). The test compounds' activity was then expressed as a percentage of Compound A, the standard in every experiment. This percent activation was calculated either in the presence or absence of DETA-NO which was then plotted. IP and maximum fold induction was derived using ADA analysis software for 4P fit.

| SMILES | pEC50 | Emax [%] |
| --- | --- | --- |
| C#CC1(CC)C(=O)Nc2nc(-c3nc(CCC(F)(F)C(F)(F)F)nc4c3cnn4C)nc(N)c21 (single isomer, unassigned) [Example 23, 4-Amino-5-ethyl-5-ethynyl-2-(1-methyl-6-(3,3,4,4,4-pentafluorobutyl)-1H-pyrazolo[3,4-d]pyrimidin-4-yl)-5H-pyrrolo[2,3-d]pyrimidin-6(7H)-one] | 7.31 | 106 |
| CC1(c2ccc(F)cc2)C(=O)Nc2nc(-c3nc(CCC(F)(F)C(F)(F)F)nc4[nH]ncc34)nc(N)c21 (single isomer, unassigned) [Example 8, 4-Amino-5-(4-fluorophenyl)-5-methyl-2-(6-(3,3,4,4,4-pentafluorobutyl)-1H-pyrazolo[3,4-d]pyrimidin-4-yl)-5H-pyrrolo[2,3-d]pyrimidin-6(7H)-one] | 6.47 | 109 |
| [2H]C([2H])([2H])n1nnc2c(-c3nc(N)c4c(n3)NC(=O)C4(C)c3ccc(F)c(OC)c3)nc(CCC(F)(F)C(F)(F)F)nc21 (single isomer, unassigned) [Example 72, 4-Amino-5-(4-fluoro-3-methoxyphenyl)-5-methyl-2-(5-(3,3,4,4,4-pentafluorobutyl-3-trideuteriomethyl)-3H-[1,2,3]triazolo[4,5-d]pyrimidin-7-yl)-5H-pyrrolo[2,3-d]pyrimidin-6(7H)-one] | 6.37 | 66 |
| [2H]C([2H])([2H])n1ncc2c(-c3nc(N)c4c(n3)NC(=O)C4(C)c3cccc(OC)c3)nc(CCC(F)(F)C(F)(F)F)nc21 (single isomer, unassigned) [Example 14, 4-Amino-5-(3-methoxyphenyl)-5-methyl-2-(6-(3,3,4,4,4-pentafluorobutyl)-1-trideuteriomethyl-1H-pyrazolo[3,4-d]pyrimidin-4-yl)-5H-pyrrolo[2,3-d]pyrimidin-6(7H)-one] | 7.68 | 110 |
| Cn1ncc2c(-c3nc(N)c4c(n3)NC(=O)C4(C)c3ccc(F)cc3)nc(CC3CC(F)(F)C3)nc21 (single isomer, unassigned) [Example 5, 4-Amino-2-(6-((3,3-difluorocyclobutyl)methyl)-1-methyl-1H-pyrazolo[3,4-d]pyrimidin-4-yl)-5-(4-fluorophenyl)-5-methyl-5H-pyrrolo[2,3-d]pyrimidin-6(7H)-one] | 7.28 | 122 |
| [2H]C([2H])([2H])n1ncc2c(-c3nc(N)c4c(n3)NC(=O)C4(C(=O)Nc3ccccn3)C3CC3)nc(CCC(F)(F)C(F)(F)F)nc21 (single isomer, unassigned) [Example 41, 4-Amino-5-cyclopropyl-2-(6-(3,3,4,4,4-pentafluorobutyl)-1-trideuteriomethyl-1H-pyrazolo[3,4-d]pyrimidin-4-yl)-6-oxo-N-(pyridin-2-yl)-6,7-dihydro-5H-pyrrolo[2,3-d]pyrimidine-5-carboxamide] | 7.11 | 100 |
| CCOC(=O)C1(C2CC2)C(=O)Nc2nc(-c3nc(CCC(F)(F)C(F)(F)F)nc4c3cnn4C)nc(N)c21 (single isomer, unassigned) [Example 26, Ethyl 4-amino-5-cyclopropyl-2-(1-methyl-6-(3,3,4,4,4-pentafluorobutyl)-1H-pyrazolo[3,4-d]pyrimidin-4-yl)-6-oxo-6,7-dihydro-5H-pyrrolo[2,3-d]pyrimidine-5-carboxylate] | 6.08 | 93 |
| [2H]C([2H])([2H])n1nnc2c(-c3nc(N)c4c(n3)NC(=O)C4(C)c3ccccc3)nc(CCC(F)(F)C(F)(F)F)nc21 (single isomer, unassigned) [Example 68, 4-Amino-5-methyl-2-(5-(3,3,4,4,4-pentafluorobutyl-3-trideuteriomethyl)-3H-[1,2,3]triazolo[4,5-d]pyrimidin-7-yl)-5-phenyl-5H-pyrrolo[2,3-d]pyrimidin-6(7H)-one] | 6.39 | 107 |
